Substitutions are numbered along the chain they refer to. Where two headings read alike, the source gives them in different places.
Legend:
[1] = molecular target: T1, IDH2 R172K_P167R cis (Homo sapiens, UniProt P48735, P167R/R172K); experiment: Inhibition of 2-HG production in IDH2 mutant U-87 MG cells; format: cell-based; settings: 16 hours incubation, 50K cells/well, 100 μl media/well, read-out: Relative IC50 (nM) Mean, inhibition of 2-HG production
T1 construct: expressed in transfected cells; host or cells: U-87 MG
T1 sequence (P48735 40-452 P167R/R172K): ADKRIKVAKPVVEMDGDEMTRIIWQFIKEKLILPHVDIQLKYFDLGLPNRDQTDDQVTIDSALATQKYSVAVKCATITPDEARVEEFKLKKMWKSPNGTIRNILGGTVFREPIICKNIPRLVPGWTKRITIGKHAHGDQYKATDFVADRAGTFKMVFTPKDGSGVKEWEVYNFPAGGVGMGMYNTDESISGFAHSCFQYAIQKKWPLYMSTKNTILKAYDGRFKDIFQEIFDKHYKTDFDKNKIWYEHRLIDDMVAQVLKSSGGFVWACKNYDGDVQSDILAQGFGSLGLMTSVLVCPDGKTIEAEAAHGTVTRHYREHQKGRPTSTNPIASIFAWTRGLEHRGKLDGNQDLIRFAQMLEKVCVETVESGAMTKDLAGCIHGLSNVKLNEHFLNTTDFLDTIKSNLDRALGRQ

[2] = molecular target: T2, IDH2 R172W (Homo sapiens, UniProt P48735, R172W); experiment: as above; format: cell-based; settings: read-out: Relative IC50 (nM) Mean, inhibition of 2-HG production
T2 construct: expressed in transfected cells; host or cells: U-87 MG
T2 sequence (P48735 40-452 R172W): T1 sequence (P48735 40-452 P167R/R172K) with R128P, K133W

IC50 [1]: 119 nM
IC50 ([2]; 16 hours incubation, 50K cells/well, 100 μl media/well): 336 nM
IC50 ([2]; 72 hours incubation, 12.5K cells/well): 47 nM
SMILES: C=CC(=O)N1CCN([C@@H](CC2CC2)c2ccc([C@H](C)Nc3ncc4c(n3)N(CC)C(=O)OC4)cc2)CC1 [Compound A, 7-[[(1S)-1-[4-[(1S)-2-cyclopropyl-1-(4-prop-2-enoylpiperazin-1-yl)ethyl]phenyl]ethyl]amino]-1-ethyl-4H-pyrimido[4,5-d][1,3]oxazin-2-one]

Reference: patent US20240261294A1, “METHOD FOR TREATING IDH INHIBITOR-RESISTANT SUBJECTS” (Eli Lilly and Company, priority 2021, published 2024)
